We go through five compounds from patent publication US20060270727A1, “Small molecule therapeutics and uses therefor” (priority 2005, published 2006).

The structures appear in SMILES notation. Where two headings read alike, the source gives them in different places.

Test [1] deals with GAA·TTC duplex repeats in the frataxin gene; radiolabeled PCR product containing a (GAA)6 sequence. The test is described as follows: Quantitative DNase I footprinting on (GAA)6 DNA. The class given is binding. Conditions: for sequence specificity: DNase I footprinting; for binding affinity for duplex GAA•TTC repeat DNA, in words: compared with FA1. An excerpt: Targeting GAA Repeat DNA with Polyamides. β-Alanine linked polyamides FA1-FA6 were synthesized (see Example 6) with sequence, theoretical DNA binding site, theoretical DNA binding site SEQ ID NO: ______) and binding affinity as shown in Table 1. […] Those of skill in the art will recognize that this value may be an underestimation of the affinity of this molecule for GAA repeat DNA since the KD measurements are limited by a minimum DNA concentration of ˜2 pM in the binding reaction. Radiolabeling of nucleic acid incorporated γ^32P ATP and polynucleotide kinase used standard procedures.
Polyamlde Synthesis and Characterization. Polyamides were synthesized by solid phase methods (Urbach & Dervan, Id.; Baird & Dervan, 1996, J. Am. Chem. Soc. 118:6141-6146) and their identity and purity verified by MALDI-TOF MS and analytical HPLC, using methods well known in the art. Fluorescent conjugates were prepared by coupling BODIPY (Molecular Probes) to the carboxyl-terminus (Best et al., 2003, Proc. Natl. Acad. Sci. U.S.A. 100:12063-12068). Binding affinities for match and mismatch sites were determined by quantitative DNase I footprinting (Trauger & Dervan, Id). A plasmid harboring six GAA repeats was constructed by cloning the oligonucleotide
in the pCR2.1 TOPO vector (Invitrogen, Calif.), and a 117 bp singly end-labeled PCR product was generated from this plasmid with the following oligonucleotides:
where the second oligonucleotide was labeled with γ-^32P ATP and polynucleotide kinase, using standard procedures, to generate a PCR product labeled on the GAA strand. A 204 bp singly end-labeled PCR product was derived from plasmid pMP142 DNA, containing 33 GAA repeats (Ohshima et al., Id.), with following oligonucleotides: […]

Test [2] has as its system mismatch DNA sequence 5′-GGAGGAGGTGGAGGAGGA-3′ from the erbB2 (Her2-neu) promoter. The test is described as follows: DNase I footprinting on mismatch DNA. Conditions: polyamide concentrations up to 100 nM. Type of test: binding, human. As for the experimental part:
Two additional molecules, FA5 [(ImPyβ)4ImβDp] and FA6 [(ImPyβ)5ImβDp], were synthesized in order to target longer regions of GAA repeats in duplex DNA; i.e., (AAG)5 (SEQ ID NO: ______) and (AAG)6 (SEQ ID NO: ______) respectively. […] As another test for sequence specificity, footprinting experiments with FA1 and FA3 and a radiolabeled DNA fragment containing a mismatch DNA sequence 5′-GGAGGAGGTGGAGGAGGA-3′ (SEQ ID NO: ______) were performed.
The first oligonucleotide shown was radiolabeled as above to generate a PCR product labeled on the GAA strand. A 150 bp PCR product containing a (GGA•TCC)6 mismatch sequence was derived from the erbB2 (Her2-neu) promoter in human genomic DNA with the following oligonucleotides: […]

In test [3] the test system is frataxin mRNA in GM15850 FRDA lymphoid cell line. Kind of test: qRT-PCR of frataxin mRNA, FRDA cell line. The class given is cell-based, human. Conditions: GM15850 FRDA cell line; 7 days incubation. An excerpt:
GAA Specific Polyamides Up Regulate Frataxin mRNA and Protein. To assess whether polyamides alleviate transcription inhibition caused by expanded GAA repeats in the frataxin gene, quantitative real time/reverse transcriptase PCR (qRT-PCR) was used to monitor frataxin mRNA levels in the GM15850 and GM15851 lymphoid cell lines described above; levels of glyceraldehyde 3-phosphate dehydrogenase (GAPDH) mRNA were used as an internal control for each RNA sample; see Example 8. No differences in GAPDH were found between the two cell lines. […] No changes in frataxin mRNA levels were observed on shorter incubation times.
Cell Culture. Epstein Barr virus transformed lymphoblast cell lines GM15850 from a FRDA patient (alleles with 650 and 1030 GAA repeats in the frataxin gene, from the Coriell Cell Repository, Camden, N.J.), and GM15851 from an unaffected sibling (normal range of repeats), were propagated in RMPI 1640 medium with 2 mM L-glutamine and 15% fetal bovine serum at 37° C. in 5% CO2. Cell growth and morphology were monitored by phase contrast microscopy and viability by trypan blue exclusion and an ATP assay (ApoSENSOR™, BioVision). Polyamides were added directly to the culture medium in PBS. Nuclear localization of the polyamides was verified by deconvolution microscopy, by methods well known in the art (see e.g., Dudouet et al., Chem. Biol., 2003, 10: 859-867).
Real-Time Quantitative RT-PCR. Real-time quantitative RT-PCR (qRT-PCR) analysis was performed essentially as previously described (Chuma, et al., 2003, Hepatology 37:198-207), using the following primers for the frataxin gene: […]
RNA was standardized by quantification of GAPDH mRNA (Pattyn et al., 2003, Nucleic Acids Res. 31:122-123), and all values are expressed relative to GAPDH. qRT-PCR was performed using iScript One-Step RT-PCR kit with SYBR green (Biorad). Statistical analysis was performed on three independent quantitative RT-PCR experiments for each RNA sample.

For test [4], the system named is sticky DNA in plasmid pRW4886, two tracts of (GAA)176. Kind of test: Sticky DNA disruption, EcoNI digestion and agarose gel. Conditions: 37° C., 1 hr. Type of test: biochemical. How it is done:
Influence of Polyamides on Sticky DNA Conformation. Plasmid pRW4886, which contains two tracts of (GAA)176 (SEQ ID NO: ______) in a direct repeat orientation (Vetcher et al., 2002b, Id)., and forms sticky DNA, was treated with polyamides at concentrations of 0-50 μM at 37° C. for 1 hr. Restriction digestion with EcoNI following the polyamide incubation enabled visualization of the presence or absence of an EcoNI cleaved sticky DNA band that runs with decreased mobility compared to the linearized plasmid on 1% agarose gels. Quantitation was by densitometric analysis using Fluor Chem version 3.04 (Alpha Innotech Corp).
The capacity of sequence-specific polyamides to disrupt the intramolecular sticky DNA structure formed by GAA repeat tracts was investigated. Plasmids harboring the sticky DNA structure are visualized by gel electrophoresis after restriction endonuclease cleavage, by methods well known in the art. […] Plasmid pRW4886, which contains two tracts of (GAA)176 (SEQ ID NO: ______) in a direct repeat orientation (Vetcher et al., 2002b, Id.), was incubated with each of polyamides FA1, FA2, FA3 and FA4 at concentrations ranging from 0-50 μM. The polyamide-bound DNA was then digested with EcoNI and subjected to electrophoresis on 1% agarose gels to determine the amount of EcoNI cleaved sticky DNA retarded band present. Incubation of pRW4886 DNA with FA3 shifted the equilibrium from a maximum amount of sticky DNA to a complete loss of the EcoNI cleaved sticky DNA retarded band at a concentration of 50 nM. […] For FA1, a 1 μM concentration was needed to dissociate the DNA-DNA structure-forming region. […] Since sticky DNA inhibits transcription (Ohshima et al., Id.; Sakamoto et al., 2001, J. Biol. Chem. 276:27171-27177), and since the polyamides destabilize this conformation by shifting the structural equilibrium to duplex B-type DNA, it is highly likely that the increases in frataxin mRNA observed with polyamide FA1 are due to this structural transition.

[5] abbreviates: quantitative DNase I footprinting, mean and standard deviation, minimum of two determinations, read-out: Binding affinity (KD).

`CN(C)CCCNC(=O)CCNC(=O)c1nc(NC(=O)CCNC(=O)c2cc(NC(=O)c3nc(NC(=O)CCNC(=O)c4cc(NC(=O)c5nc(NC(=O)CCNC(=O)c6cc(NC(=O)c7nccn7C)cn6C)cn5C)cn4C)cn3C)cn2C)cn1C` [FA3, (ImPyβ)3ImβDp]: the Kd in test [1] (footprinting at low (~2 pM) DNA concentrations, may underestimate affinity, read-out: KD) is about 3 pM; in test [1] (setting [5]), 3 ± 1 pM. Further, the “binding to mismatch DNA sequence” value in test [2] is recorded as “Neither FA1 nor FA3 bound this DNA sequence”. Besides, the “effect on frataxin mRNA levels, in words” value in test [3] was “did not increase frataxin mRNA levels”. Further, in test [4], the “concentration for complete loss of the EcoNI cleaved sticky DNA retarded band” value turned out to be 50 nM.

As to `CN(C)CCCNC(=O)CCNC(=O)c1cc(NC(=O)CCNC(=O)c2nc(NC(=O)c3nc(NC(=O)CCNC(=O)c4cc(NC(=O)c5nc(NC(=O)CCNC(=O)c6cc(NC(=O)c7nccn7C)cn6C)cn5C)cn4C)cn3C)cn2C)cn1C` [FA4, (ImPyβ)2ImImβPyβDp], the Kd in test [1] ((GAA)6 DNA, values in text, read-out: apparent dissociation constant (KD)) was determined as 2000 pM. For the same compound, the “binding affinity, times less than FA3” value in test [1] (FA4 vs FA3) is on record as about 1000 times. The “reduction of binding affinity vs match polyamide” value in test [1] (mismatch vs match polyamide (FA2 vs FA1, FA4 vs FA3)) is “three orders of magnitude”. Also, in test [4], the “concentration needed to affect or dissociate sticky DNA” value was at least 5 µM.

In the case of `CN(C)CCCNC(=O)CCNC(=O)c1nc(NC(=O)CCNC(=O)c2cc(NC(=O)c3nc(NC(=O)CCNC(=O)c4cc(NC(=O)c5nc(NC(=O)CCNC(=O)c6cc(NC(=O)c7nc(NC(=O)CCNC(=O)c8cc(NC(=O)c9nccn9C)cn8C)cn7C)cn6C)cn5C)cn4C)cn3C)cn2C)cn1C` [FA5, (ImPyβ)4ImβDp], in test [1], the sequence specificity entry was “less specific than FA1 or FA3” and the “binding affinity for duplex GAA•TTC repeat DNA, in words” value is on record as “comparable to that of FA1”. For the same compound, the Kd in test [1] (setting [5]) worked out at 200 ± 20 pM.

In the case of `CN(C)CCCNC(=O)CCNC(=O)c1nc(NC(=O)CCNC(=O)c2cc(NC(=O)c3nc(NC(=O)CCNC(=O)c4cc(NC(=O)c5nc(NC(=O)CCNC(=O)c6cc(NC(=O)c7nc(NC(=O)CCNC(=O)c8cc(NC(=O)c9nc(NC(=O)CCNC(=O)c%10cc(NC(=O)c%11nccn%11C)cn%10C)cn9C)cn8C)cn7C)cn6C)cn5C)cn4C)cn3C)cn2C)cn1C` [FA6, (ImPyβ)5ImβDp], in test [1], the sequence specificity entry is “less specific than FA1 or FA3” and the “binding affinity for duplex GAA•TTC repeat DNA, in words” value was “comparable to that of FA1”. For the same compound, the Kd in test [1] (setting [5]) is 220 ± 80 pM.

Turning to `CN(C)CCCNC(=O)CCNC(=O)c1nc(NC(=O)CCNC(=O)c2cc(NC(=O)c3nccn3C)cn2C)cn1C` [ImPyβImβDp], the binding affinity entry in test [1] (six bp sequence 5′-AAGAAG-3′) is reported as “low μM”.
